Assay results as given in ChEMBL document CHEMBL1201861, “Genomics of Drug Sensitity in Cancer screening data, Wellcome Trust Sanger Institute”.
“And” between values parts separate entries of the source, which are not always exact repeats. Equal entries are not always repeated.

Key:
Assay in all cases: cells
GR-ST = format: functional, cell-based; conditions: Homo sapiens
Description: SANGER: Inhibition of human GR-ST cell growth in a cell viability assay.

LB831-BLC = format: functional, cell-based, Homo sapiens;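 note: growth inhibition of LB831-BLC cells, read out with a cell viability assay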
Description: SANGER: Inhibition of human LB831-BLC cell growth in a cell viability assay.

SW1573 = format: functional, cell-based, Homo sapiens;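 note: growth inhibition of SW1573 cells, read out with a cell viability assay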
Description: SANGER: Inhibition of human SW1573 cell growth in a cell viability assay.

MC116 = format: functional, cell-based; conditions: Homo sapiens;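 note: growth inhibition of MC116 cells, read out with a cell viability assay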
Description: SANGER: Inhibition of human MC116 cell growth in a cell viability assay.

G-401 = format: functional, cell-based, Homo sapiens
Description: SANGER: Inhibition of human G-401 cell growth in a cell viability assay.

NCI-H1092 = format: functional, cell-based; conditions: Homo sapiens;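 note: cell growth inhibition measured with a cell viability assay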
Description: SANGER: Inhibition of human NCI-H1092 cell growth in a cell viability assay.

ML-2 = format: functional, cell-based; conditions: Homo sapiens;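 note: growth inhibition of ML-2 cells, measured with a cell viability readout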
Description: SANGER: Inhibition of human ML-2 cell growth in a cell viability assay.

RPMI-8226 = format: functional, cell-based; conditions: Homo sapiens
Description: SANGER: Inhibition of human RPMI-8226 cell growth in a cell viability assay.

MSTO-211H = format: functional, cell-based, Homo sapiens
Description: SANGER: Inhibition of human MSTO-211H cell growth in a cell viability assay.

SNU-449 = format: functional, cell-based, Homo sapiens
Description: SANGER: Inhibition of human SNU-449 cell growth in a cell viability assay.

COLO-679 = format: functional, cell-based, Homo sapiens
Description: SANGER: Inhibition of human COLO-679 cell growth in a cell viability assay.

Becker = format: functional, cell-based, Homo sapiens;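 note: growth inhibition of Becker cells, read out with a cell viability assay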
Description: SANGER: Inhibition of human Becker cell growth in a cell viability assay.

MDA-MB-175-VII = format: functional, cell-based, Homo sapiens
NCI-H209 = format: functional, cell-based; conditions: Homo sapiens;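 note: growth inhibition of human NCI-H209 cells, measured by a cell viability assay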
Description: SANGER: Inhibition of human NCI-H209 cell growth in a cell viability assay.

HuCCT-1 = format: functional, cell-based, Homo sapiens, HuCCT1;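 note: growth inhibition of HuCCT-1 cells, read out by a cell viability assay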
Description: SANGER: Inhibition of human HuCCT1 cell growth in a cell viability assay.

SJSA-1 = format: functional, cell-based, Homo sapiens;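 note: growth inhibition of human SJSA-1 cells, read out through a cell viability measurement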
Description: SANGER: Inhibition of human SJSA-1 cell growth in a cell viability assay.

LB2241-RCC = format: functional, cell-based, Homo sapiens;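 note: cell viability assay measuring how strongly the cultured human renal carcinoma line is prevented from growing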
Description: SANGER: Inhibition of human LB2241-RCC cell growth in a cell viability assay.

TCC-SUP = format: functional, cell-based, Homo sapiens;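 note: growth inhibition of TCC-SUP cells, read out with a cell viability assay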
Description: SANGER: Inhibition of human TCCSUP cell growth in a cell viability assay.

EW-3 = format: functional, cell-based; conditions: Homo sapiens;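 note: cell viability assay read-out, IC50 reflects inhibition of growth of the EW-3 cells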
Description: SANGER: Inhibition of human EW-3 cell growth in a cell viability assay.

HL-60 = format: functional, cell-based; conditions: Homo sapiens;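 note: growth inhibition of human HL-60 cells, read out with a cell viability assay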
Description: SANGER: Inhibition of human HL-60 cell growth in a cell viability assay.

SW13 = format: functional, cell-based, Homo sapiens;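 note: IC50 is inhibition of SW13 cell growth, read out with a cell viability assay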
Description: SANGER: Inhibition of human SW13 cell growth in a cell viability assay.

TGW = format: functional, cell-based; conditions: Homo sapiens;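 note: growth inhibition of human TGW cells, read out with a cell viability assay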
Description: SANGER: Inhibition of human TGW cell growth in a cell viability assay.

IST-SL1 = format: functional, cell-based, Homo sapiens;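 note: growth inhibition of human IST-SL1 cells, read out with a cell viability assay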
Description: SANGER: Inhibition of human IST-SL1 cell growth in a cell viability assay.

A498 = format: functional, cell-based, Homo sapiens;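 note: growth inhibition of human A498 cells, read out with a cell viability assay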
Description: SANGER: Inhibition of human A498 cell growth in a cell viability assay.

H4 = format: functional, cell-based; conditions: Homo sapiens
Description: SANGER: Inhibition of human H4 cell growth in a cell viability assay.

HTC-C3 = format: functional, cell-based, Homo sapiens;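 note: inhibition of cell growth, read out with a cell viability assay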
Description: SANGER: Inhibition of human HTC-C3 cell growth in a cell viability assay.

JVM-3 = format: functional, cell-based; conditions: Homo sapiens;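 note: growth inhibition of human JVM-3 cells, read out with a cell viability assay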
Description: SANGER: Inhibition of human JVM-3 cell growth in a cell viability assay.

BB49-HNC = format: functional, cell-based, Homo sapiens;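 note: cell viability assay read-out, reported as inhibition of BB49-HNC cell growth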
Description: SANGER: Inhibition of human BB49-HNC cell growth in a cell viability assay.

SHP77 = format: functional, cell-based, Homo sapiens, SHP-77;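 note: growth inhibition of human SHP-77 cells measured by a cell viability assay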
Description: SANGER: Inhibition of human SHP-77 cell growth in a cell viability assay.

OAW-42 = format: functional, cell-based, Homo sapiens;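 note: growth inhibition of OAW-42 cells, read out with a cell viability assay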
Description: SANGER: Inhibition of human OAW-42 cell growth in a cell viability assay.

CAL-62 = format: functional, cell-based, Homo sapiens;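 note: growth inhibition of CAL-62 cells, read out with a cell viability assay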
Description: SANGER: Inhibition of human CAL-62 cell growth in a cell viability assay.

SF-539 = format: functional, cell-based, Homo sapiens;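 note: Read-out is a cell viability assay, with IC50 reflecting inhibition of cell growth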
Description: SANGER: Inhibition of human SF539 cell growth in a cell viability assay.

NY = format: functional, cell-based, Homo sapiens
Description: SANGER: Inhibition of human NY cell growth in a cell viability assay.

A253 cell line = format: functional, cell-based, Homo sapiens;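 note: growth inhibition of A253 cells, read out with a cell viability assay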
Description: SANGER: Inhibition of human A253 cell growth in a cell viability assay.

SCC-15 = format: functional, cell-based, Homo sapiens;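 note: growth inhibition of SCC-15 cells, read out with a cell viability assay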
Description: SANGER: Inhibition of human SCC-15 cell growth in a cell viability assay.

MHH-PREB-1 = format: functional, cell-based; conditions: Homo sapiens;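 note: cell viability assay measuring inhibition of proliferation of human MHH-PREB-1 cells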
Description: SANGER: Inhibition of human MHH-PREB-1 cell growth in a cell viability assay.

ATN-1 = format: functional, cell-based; conditions: Homo sapiens;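 note: growth inhibition of human ATN-1 cells, read out with a cell viability assay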
Description: SANGER: Inhibition of human ATN-1 cell growth in a cell viability assay.

NCI-H1755 = format: functional, cell-based, Homo sapiens;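 note: cell viability readout used to measure growth inhibition of NCI-H1755 cells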
Description: SANGER: Inhibition of human NCI-H1755 cell growth in a cell viability assay.

647-V = format: functional, cell-based, Homo sapiens;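 note: growth inhibition of 647-V cells, read out with a cell viability assay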
Description: SANGER: Inhibition of human 647-V cell growth in a cell viability assay.

SK-NEP-1 = format: functional, cell-based; conditions: Homo sapiens;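 note: growth inhibition of human SK-NEP-1 cells, read out by a cell viability assay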
Description: SANGER: Inhibition of human SK-NEP-1 cell growth in a cell viability assay.

A4-Fuk = format: functional, cell-based; conditions: Homo sapiens;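 note: growth inhibition of A4-Fuk cells, read out by a cell viability assay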
Description: SANGER: Inhibition of human A4-Fuk cell growth in a cell viability assay.

NCI-H1651 = format: functional, cell-based, Homo sapiens;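 note: Read-out is a cell viability assay, with IC50 expressing inhibition of NCI-H1651 cell growth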
Description: SANGER: Inhibition of human NCI-H1651 cell growth in a cell viability assay.

DEL = format: functional, cell-based; conditions: Homo sapiens;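 note: growth inhibition of the human DEL cell line, read out with a cell viability assay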
Description: SANGER: Inhibition of human DEL cell growth in a cell viability assay.

HCE-4 = format: functional, cell-based, Homo sapiens;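 note: cell viability assay measuring inhibition of growth in the human HCE-4 cell line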
Description: SANGER: Inhibition of human HCE-4 cell growth in a cell viability assay.

P30-OHK = format: functional, cell-based; conditions: Homo sapiens;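 note: growth inhibition of the P30-OHK cell line, read out with a cell viability assay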
Description: SANGER: Inhibition of human P30-OHK cell growth in a cell viability assay.

YKG-1 = format: functional, cell-based, Homo sapiens;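 note: cell growth inhibition, read out with a viability assay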
Description: SANGER: Inhibition of human YKG-1 cell growth in a cell viability assay.

LS-513 = format: functional, cell-based, Homo sapiens
Description: SANGER: Inhibition of human LS-513 cell growth in a cell viability assay.

BCPAP = format: functional, cell-based, Homo sapiens;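 note: growth inhibition of BCPAP cells, read out in a cell viability assay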
Description: SANGER: Inhibition of human BCPAP cell growth in a cell viability assay.

LB373-MEL-D = format: functional, cell-based, Homo sapiens; conditions: lb373-mel-d;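 note: growth inhibition of the cell line, read out in a cell viability assay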
Description: SANGER: Inhibition of human LB373-MEL-D cell growth in a cell viability assay.

SK-UT-1 = format: functional, cell-based, Homo sapiens; conditions: sk-ut-1;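 note: growth inhibition of SK-UT-1 cells, measured by a cell viability assay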
Description: SANGER: Inhibition of human SK-UT-1 cell growth in a cell viability assay.

D-336MG = format: functional, cell-based, Homo sapiens; conditions: d-336mg
Description: SANGER: Inhibition of human D-336MG cell growth in a cell viability assay.

EW-24 = format: functional, cell-based; conditions: Homo sapiens;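 note: human EW-24 cancer cell line, growth inhibition read out via a cell viability assay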
Description: SANGER: Inhibition of human EW-24 cell growth in a cell viability assay.

HC-1 = format: functional, cell-based; conditions: Homo sapiens;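 note: growth inhibition of HC-1 cells measured by a cell viability assay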
Description: SANGER: Inhibition of human HC-1 cell growth in a cell viability assay.

Compound: COc1cc(F)c(F)c(Nc2ccc(I)cc2F)c1NS(=O)(=O)C1(CC(O)CO)CC1 (configuration not stated)
- IC50 (GR-ST): > 5 µM
- IC50 (LB831-BLC; Homo sapiens, LB831-BLC): > 5 µM
- IC50 (SW1573; Homo sapiens, SW1573): > 5 µM
- IC50 (MC116): > 5 µM
- IC50 (G-401; Homo sapiens, G-401): 1.97 µM
- IC50 (NCI-H1092): > 5 µM
- IC50 (ML-2): 0.503 µM
- IC50 (RPMI-8226): 4.51 µM
- IC50 (MSTO-211H; Homo sapiens, MSTO-211H): 3.08 µM
- IC50 (SNU-449; Homo sapiens, SNU-449): 3.85 µM
- IC50 (COLO-679; Homo sapiens, COLO-679): 0.153 µM
- IC50 (Becker; Homo sapiens, Becker): > 5 µM
- IC50 (MDA-MB-175-VII; Homo sapiens, MDA-MB-175-VII): 2.57 µM
- IC50 (NCI-H209): > 5 µM
- IC50 (HuCCT-1; Homo sapiens, HuCCT-1): 0.905 µM
- IC50 (SJSA-1; Homo sapiens, SJSA-1): 0.158 µM
- IC50 (LB2241-RCC; Homo sapiens, LB2241-RCC): 3.3 µM
- IC50 (TCC-SUP; Homo sapiens, TCC-SUP): > 5 µM
- IC50 (EW-3): 0.103 µM
- IC50 (HL-60): 0.0324 µM
- IC50 (SW13; Homo sapiens, SW13): 4.33 µM
- IC50 (TGW): > 5 µM
- IC50 (IST-SL1; Homo sapiens, IST-SL1): > 5 µM
- IC50 (A498; Homo sapiens, A498): > 5 µM
- IC50 (H4): 3.35 µM
- IC50 (HTC-C3; Homo sapiens, HTC-C3): 0.122 µM
- IC50 (JVM-3): 4.38 µM
- IC50 (BB49-HNC; Homo sapiens, BB49-HNC): > 5 µM
- IC50 (SHP77; Homo sapiens, SHP77): > 5 µM
- IC50 (OAW-42; Homo sapiens, OAW-42): > 5 µM
- IC50 (CAL-62; Homo sapiens, CAL-62): 0.682 µM
- IC50 (SF-539; Homo sapiens, SF-539): 2.21 µM
- IC50 (NY; Homo sapiens, NY): > 5 µM
- IC50 (A253 cell line; Homo sapiens, A253): 3.32 µM
- IC50 (SCC-15; Homo sapiens, SCC-15): > 5 µM
- IC50 (MHH-PREB-1): > 5 µM
- IC50 (ATN-1): > 5 µM
- IC50 (NCI-H1755; Homo sapiens, NCI-H1755): > 5 µM
- IC50 (647-V; Homo sapiens, 647-V): > 5 µM
- IC50 (SK-NEP-1): > 5 µM
- IC50 (A4-Fuk): 1.85 µM
- IC50 (NCI-H1651; Homo sapiens, NCI-H1651): > 5 µM
- IC50 (DEL): > 5 µM
- IC50 (HCE-4; Homo sapiens, HCE-4): > 5 µM
- IC50 (P30-OHK): > 5 µM
- IC50 (YKG-1; Homo sapiens, YKG-1): 0.938 µM
- IC50 (LS-513; Homo sapiens, LS-513): 0.414 µM
- IC50 (BCPAP; Homo sapiens, BCPAP): 2.18 µM

Compound: Cc1cc([C@@H](C)Nc2ccccc2C(=O)O)c2nc(N3CCOCC3)cc(=O)n2c1 [AZD-6482]
- IC50 (GR-ST): > 5.12 µM
- IC50 (LB831-BLC; lb831-blc): > 5.12 µM
- IC50 (SW1573; sw1573): > 5.12 µM
- IC50 (LB373-MEL-D): > 5.12 µM
- IC50 (MC116): 1.46 µM
- IC50 (G-401; g-401): 4.07 µM and > 5.12 µM
- IC50 (NCI-H1092): > 5.12 µM
- IC50 (ML-2): 3.56 µM
- IC50 (RPMI-8226): > 5.12 µM
- IC50 (MSTO-211H; msto-211h): > 5.12 µM
- IC50 (SNU-449; Homo sapiens, SNU-449): > 5.12 µM
- IC50 (SNU-449; snu-449): > 5.12 µM
- IC50 (COLO-679; Homo sapiens, COLO-679): > 5.12 µM
- IC50 (COLO-679; colo-679): > 5.12 µM
- IC50 (Becker; becker): 1.36 µM and 4.54 µM
- IC50 (MDA-MB-175-VII; mda-mb-175-vii): > 5.12 µM
- IC50 (NCI-H209): > 5.12 µM
- IC50 (SK-UT-1): 2.45 µM and > 5.12 µM
- IC50 (HuCCT-1; hucct1): > 5.12 µM and 1.24 µM
- IC50 (SJSA-1; Homo sapiens, SJSA-1): > 5.12 µM
- IC50 (SJSA-1; sjsa-1): > 5.12 µM
- IC50 (LB2241-RCC; lb2241-rcc): > 5.12 µM and 1.32 µM
- IC50 (TCC-SUP; tcc-sup): > 5.12 µM
- IC50 (EW-3): > 5.12 µM
- IC50 (HL-60): > 5.12 µM
- IC50 (SW13; Homo sapiens, SW13): > 5.12 µM
- IC50 (SW13; sw13): > 5.12 µM
- IC50 (TGW): > 5.12 µM
- IC50 (IST-SL1; ist-sl1): > 5.12 µM
- IC50 (A498; a498): 0.118 µM and 0.459 µM
- IC50 (HTC-C3; Homo sapiens, HTC-C3): > 5.12 µM
- IC50 (HTC-C3; htc-c3): > 5.12 µM
- IC50 (JVM-3): > 5.12 µM
- IC50 (D-336MG): 1.67 µM and 3.43 µM
- IC50 (BB49-HNC; bb49-hnc): > 5.12 µM and 0.73 µM
- IC50 (SHP77; shp-77): > 5.12 µM
- IC50 (OAW-42; oaw-42): > 5.12 µM
- IC50 (CAL-62; cal-62): > 5.12 µM
- IC50 (SF-539; sf-539): > 5.12 µM
- IC50 (NY; Homo sapiens, NY): > 5.12 µM
- IC50 (NY; ny): > 5.12 µM
- IC50 (A253 cell line; Homo sapiens, A253): > 5.12 µM
- IC50 (A253 cell line; a253): > 5.12 µM
- IC50 (SCC-15; scc-15): > 5.12 µM
- IC50 (MHH-PREB-1): > 5.12 µM
- IC50 (ATN-1): > 5.12 µM
- IC50 (NCI-H1755; Homo sapiens, NCI-H1755): 3.27 µM
- IC50 (NCI-H1755; nci-h1755): 3.31 µM
- IC50 (647-V; 647-v): > 5.12 µM
- IC50 (SK-NEP-1): > 5.12 µM
- IC50 (A4-Fuk): 3.08 µM
- IC50 (NCI-H1651; Homo sapiens, NCI-H1651): > 5.12 µM
- IC50 (NCI-H1651; nci-h1651): > 5.12 µM
- IC50 (DEL): > 5.12 µM
- IC50 (EW-24): > 5.12 µM
- IC50 (HCE-4; hce-4): > 5.12 µM
- IC50 (P30-OHK): 1.07 µM
- IC50 (YKG-1; Homo sapiens, YKG-1): > 5.12 µM
- IC50 (YKG-1; ykg-1): > 5.12 µM
- IC50 (HC-1): > 5.12 µM
- IC50 (LS-513; Homo sapiens, LS-513): > 5.12 µM
- IC50 (LS-513; ls-513): > 5.12 µM
- IC50 (BCPAP; Homo sapiens, BCPAP): > 5.12 µM
- IC50 (BCPAP; bcpap): > 5.12 µM
